PubChem BioAssay (NCI)
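48-hour exposure; five concentrations; linearly interpolated endpoints. GI50: concentration for 50% inhibition of growth. TGI denotes the concentration required for complete inhibition of growth.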

Key:
Assay in all cases: DTP human tumour cell line panel, 48 h
U251 CNS = test system: U251 CNS
PC-3 prostate = test system: PC-3 prostate
MCF7 breast = test system: MCF7 breast
OVCAR-5 ovarian = test system: OVCAR-5 ovarian
HL-60(TB) leukemia = test system: HL-60(TB) leukemia
K-562 leukemia = test system: K-562 leukemia
NCI-H460 lung = test system: NCI-H460 lung
M14 melanoma = test system: M14 melanoma
SNB-19 CNS = test system: SNB-19 CNS
HOP-62 NSCLC = test system: HOP-62 NSCLC
UACC-257 melanoma = test system: UACC-257 melanoma
SK-MEL-28 melanoma = test system: SK-MEL-28 melanoma
HCT-15 colon = test system: HCT-15 colon
HCT-116 colon = test system: HCT-116 colon
EKVX NSCLC = test system: EKVX NSCLC
OVCAR-4 ovarian = test system: OVCAR-4 ovarian
NCI-H226 lung = test system: NCI-H226 lung
SK-MEL-2 melanoma = test system: SK-MEL-2 melanoma
MALME-3M melanoma = test system: MALME-3M melanoma
RPMI-8226 leukemia = test system: RPMI-8226 leukemia
SN12C renal = test system: SN12C renal
MDA-MB-231 breast = test system: MDA-MB-231 breast
CCRF-CEM leukemia = test system: CCRF-CEM leukemia
MDA-MB-435 = test system: MDA-MB-435
TK-10 renal = test system: TK-10 renal
A549 NSCLC = test system: A549 NSCLC
BT-549 breast = test system: BT-549 breast
OVCAR-3 ovarian = test system: OVCAR-3 ovarian
786-0 renal = test system: 786-0 renal
NCI/ADR-RES ovarian = test system: NCI/ADR-RES ovarian
CAKI-1 renal = test system: CAKI-1 renal
ACHN renal = test system: ACHN renal
NCI-H23 lung = test system: NCI-H23 lung
UACC-62 melanoma = test system: UACC-62 melanoma
NCI-H522 lung = test system: NCI-H522 lung
SK-MEL-5 melanoma = test system: SK-MEL-5 melanoma
KM12 colon = test system: KM12 colon
HS 578T breast = test system: HS 578T breast
SNB-75 CNS = test system: SNB-75 CNS
LOX IMVI melanoma = test system: LOX IMVI melanoma
UO-31 renal = test system: UO-31 renal
A498 renal = test system: A498 renal
SF-539 CNS = test system: SF-539 CNS
SW-620 colon = test system: SW-620 colon
RXF 393 renal = test system: RXF 393 renal
SF-295 CNS = test system: SF-295 CNS
SF-268 CNS = test system: SF-268 CNS
IGROV1 ovarian = test system: IGROV1 ovarian
MOLT-4 leukemia = test system: MOLT-4 leukemia
SK-OV-3 ovarian = test system: SK-OV-3 ovarian
HOP-92 NSCLC = test system: HOP-92 NSCLC
COLO 205 colon = test system: COLO 205 colon
HT29 colon = test system: HT29 colon
T-47D breast = test system: T-47D breast
DU-145 prostate = test system: DU-145 prostate
OVCAR-8 ovarian = test system: OVCAR-8 ovarian
HCC-2998 colon = test system: HCC-2998 colon

With `Nc1ccc(C#Cc2ccccc2C#CCCCCO)cc1` the GI50 (U251 CNS) was 11.1 µM, the TGI (U251 CNS) was 23.1 µM and the GI50 (PC-3 prostate) was 15.6 µM. For the same compound, the TGI (PC-3 prostate) was 28.9 µM, the GI50 (MCF7 breast) was 23.5 µM and the TGI (MCF7 breast) was 52.2 µM. The GI50 (OVCAR-5 ovarian) was 16.4 µM, the TGI (OVCAR-5 ovarian) was 31.3 µM and the GI50 (HL-60(TB) leukemia) was 23.4 µM. The TGI (HL-60(TB) leukemia) was 44 µM, the GI50 (K-562 leukemia) was 19.7 µM and the TGI (K-562 leukemia) was 40.8 µM. For the same compound, the GI50 (NCI-H460 lung) was 21.8 µM, the TGI (NCI-H460 lung) was 45.4 µM and the GI50 (M14 melanoma) was 14.1 µM. For the same compound, the TGI (M14 melanoma) was 28.1 µM, the GI50 (SNB-19 CNS) was 17.5 µM and the TGI (SNB-19 CNS) was 31.3 µM. For the same compound, the GI50 (HOP-62 NSCLC) was 15.2 µM, the TGI (HOP-62 NSCLC) was 28.7 µM and the GI50 (UACC-257 melanoma) was 18.9 µM. The TGI (UACC-257 melanoma) was 33.8 µM, the GI50 (SK-MEL-28 melanoma) was 9.31 µM and the TGI (SK-MEL-28 melanoma) was 21.9 µM. The GI50 (HCT-15 colon) was 15.3 µM, the TGI (HCT-15 colon) was 28.7 µM and the GI50 (HCT-116 colon) was 14.3 µM. It also gave a TGI (HCT-116 colon) of 28.2 µM, a GI50 (EKVX NSCLC) of 18.9 µM and a TGI (EKVX NSCLC) of 37.8 µM. The GI50 (OVCAR-4 ovarian) was 16.7 µM, the TGI (OVCAR-4 ovarian) was 32.6 µM and the GI50 (NCI-H226 lung) was 17.5 µM. The TGI (NCI-H226 lung) was 40.5 µM, the GI50 (SK-MEL-2 melanoma) was 18.8 µM and the TGI (SK-MEL-2 melanoma) was 37.1 µM. For the same compound, the GI50 (MALME-3M melanoma) was 24.8 µM, the TGI (MALME-3M melanoma) was 43.9 µM and the GI50 (RPMI-8226 leukemia) was 18.1 µM. It also gave a TGI (RPMI-8226 leukemia) of 44.2 µM, a GI50 (SN12C renal) of 6.26 µM and a TGI (SN12C renal) of 20 µM. For the same compound, the GI50 (MDA-MB-231 breast) was 14 µM, the TGI (MDA-MB-231 breast) was 27.5 µM and the GI50 (CCRF-CEM leukemia) was 13.2 µM. The TGI (CCRF-CEM leukemia) was 28.1 µM, the GI50 (MDA-MB-435) was 19.7 µM and the TGI (MDA-MB-435) was 36.6 µM. For the same compound, the GI50 (TK-10 renal) was 21.6 µM, the TGI (TK-10 renal) was 46.5 µM and the GI50 (A549 NSCLC) was 14.7 µM. The TGI (A549 NSCLC) was 28.7 µM, the GI50 (BT-549 breast) was 16.3 µM and the TGI (BT-549 breast) was 34.8 µM. It also gave a GI50 (OVCAR-3 ovarian) of 23 µM, a TGI (OVCAR-3 ovarian) of 47.2 µM and a GI50 (786-0 renal) of 13.8 µM. It also gave a TGI (786-0 renal) of 27.5 µM, a GI50 (NCI/ADR-RES ovarian) of 18.9 µM and a TGI (NCI/ADR-RES ovarian) of 40.4 µM. For the same compound, the GI50 (CAKI-1 renal) was 20.9 µM, the TGI (CAKI-1 renal) was 40.4 µM and the GI50 (ACHN renal) was 14.5 µM. The TGI (ACHN renal) was 27.5 µM, the GI50 (NCI-H23 lung) was 18.2 µM and the TGI (NCI-H23 lung) was 35.1 µM. It also gave a GI50 (UACC-62 melanoma) of 14.9 µM, a TGI (UACC-62 melanoma) of 28.3 µM and a GI50 (NCI-H522 lung) of 15.7 µM. It also gave a TGI (NCI-H522 lung) of 29.5 µM, a GI50 (SK-MEL-5 melanoma) of 19.8 µM and a TGI (SK-MEL-5 melanoma) of 38.6 µM. The GI50 (KM12 colon) was 15.9 µM, the TGI (KM12 colon) was 33.4 µM and the GI50 (HS 578T breast) was 26.8 µM. It also gave a TGI (HS 578T breast) of 64.7 µM, a GI50 (SNB-75 CNS) of 14.4 µM and a TGI (SNB-75 CNS) of 29.8 µM. It also gave a GI50 (LOX IMVI melanoma) of 16.2 µM, a TGI (LOX IMVI melanoma) of 29.7 µM and a GI50 (UO-31 renal) of 16.6 µM. The TGI (UO-31 renal) was 30.5 µM, the GI50 (A498 renal) was 19.8 µM and the TGI (A498 renal) was 42.1 µM. For the same compound, the GI50 (SF-539 CNS) was 17.6 µM, the TGI (SF-539 CNS) was 33.9 µM and the GI50 (SW-620 colon) was 17.6 µM. For the same compound, the TGI (SW-620 colon) was 33.1 µM, the GI50 (RXF 393 renal) was 4.69 µM and the TGI (RXF 393 renal) was 20.5 µM. For the same compound, the GI50 (SF-295 CNS) was 22.3 µM, the TGI (SF-295 CNS) was 41.1 µM and the GI50 (SF-268 CNS) was 19.9 µM. The TGI (SF-268 CNS) was 40.4 µM, the GI50 (IGROV1 ovarian) was 16.1 µM and the TGI (IGROV1 ovarian) was 30.2 µM. For the same compound, the GI50 (MOLT-4 leukemia) was 16.5 µM, the TGI (MOLT-4 leukemia) was 35.1 µM and the GI50 (SK-OV-3 ovarian) was 18.1 µM. For the same compound, the TGI (SK-OV-3 ovarian) was 34.7 µM, the GI50 (HOP-92 NSCLC) was 15.5 µM and the TGI (HOP-92 NSCLC) was 32.1 µM. It also gave a GI50 (COLO 205 colon) of 16.1 µM, a TGI (COLO 205 colon) of 30.1 µM and a GI50 (HT29 colon) of 13.3 µM. It also gave a TGI (HT29 colon) of 26.1 µM, a GI50 (T-47D breast) of 15.4 µM and a TGI (T-47D breast) of 30.7 µM. For the same compound, the GI50 (DU-145 prostate) was 18.4 µM, the TGI (DU-145 prostate) was 35.1 µM and the GI50 (OVCAR-8 ovarian) was 17 µM. For the same compound, the TGI (OVCAR-8 ovarian) was 33.5 µM, the GI50 (HCC-2998 colon) was 16.6 µM and the TGI (HCC-2998 colon) was 31.3 µM.
